Measurements reported in the supplement of paper PMC10307832.

Legend:
Test in all cases: relative viability (nuclei count vs DMSO), 5 days (fraction); higher = more cells survive
LCLC-97TM1 = test system: LCLC-97TM1
In short: (§1)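 Lung cancer cell lines, seeded in 1536-well plates, were treated the following day by pin tool with a single drug or with five library-drug doses (not always all listed) in √10 steps on top of a fixed anchor-drug dose. Cells were fixed and nuclei stained in one step after 5 days, and nuclei were counted. Relative viability is the nuclei count for treated wells divided by that for vehicle wells, reported as medians of duplicate plates.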

RERF-LC-KJ = test system: RERF-LC-KJ
In short: as §1

PC-14 = test system: PC-14
In short: as §1

NCI-H1650 = test system: NCI-H1650
In short: as §1

HCC-15 = test system: HCC-15
In short: as §1

NCI-H322M = test system: NCI-H322M
In short: as §1

NCI-H1355 = test system: NCI-H1355
In short: as §1

NCI-H2405 = test system: NCI-H2405
In short: as §1

LK-2 = test system: LK-2
In short: as §1

NCI-H2228 = test system: NCI-H2228
In short: as §1

CAL-12T = test system: CAL-12T
In short: as §1

HCC-827 = test system: HCC-827
In short: as §1

NCI-H1755 = test system: NCI-H1755
In short: as §1

NCI-H1734 = test system: NCI-H1734
In short: as §1

EKVX = test system: EKVX
In short: as §1

NCI-H520 = test system: NCI-H520
In short: as §1

PC-3 [JPC-3] = test system: PC-3 [JPC-3]
In short: as §1

H3255 = test system: H3255
In short: as §1

NCI-H1975 = test system: NCI-H1975
In short: as §1

Compound: O=c1cc(N2CCOCC2)oc2c(-c3cccc4c3sc3ccccc34)cccc12 + CC1(C)CCC(c2ccc(Cl)cc2)=C(CN2CCN(c3ccc(C(=O)NS(=O)(=O)c4ccc(N[C@H](CCN5CCOCC5)CSc5ccccc5)c(S(=O)(=O)C(F)(F)F)c4)cc3)CC2)C1 [Navitoclax] (partner 0.5 µM)
- relative viability (LCLC-97TM1; first compound 0.01 µM): 0.391
- relative viability (LCLC-97TM1; first compound 0.03162 µM): 0.568
- relative viability (LCLC-97TM1; first compound 0.3162 µM): 0.362
- relative viability (LCLC-97TM1; first compound 1 µM): 0.346
- relative viability (RERF-LC-KJ; first compound 0.01 µM): 0.926
- relative viability (RERF-LC-KJ; first compound 0.03162 µM): 1.2
- relative viability (RERF-LC-KJ; first compound 0.1 µM): 0.98
- relative viability (RERF-LC-KJ; first compound 0.3162 µM): 0.85
- relative viability (RERF-LC-KJ; first compound 1 µM): 0.974
- relative viability (PC-14; first compound 0.01 µM): 1.09
- relative viability (PC-14; first compound 0.03162 µM): 0.95
- relative viability (PC-14; first compound 0.1 µM): 1.08
- relative viability (PC-14; first compound 0.3162 µM): 1.07
- relative viability (PC-14; first compound 1 µM): 1.03
- relative viability (NCI-H1650; first compound 0.03162 µM): 1.07
- relative viability (NCI-H1650; first compound 0.1 µM): 1.07
- relative viability (NCI-H1650; first compound 0.3162 µM): 1.47
- relative viability (NCI-H1650; first compound 1 µM): 1.07
- relative viability (HCC-15; first compound 0.01 µM): 0.788
- relative viability (HCC-15; first compound 0.03162 µM): 0.706
- relative viability (HCC-15; first compound 0.1 µM): 0.69
- relative viability (HCC-15; first compound 0.3162 µM): 0.691
- relative viability (HCC-15; first compound 1 µM): 0.667
- relative viability (NCI-H322M; first compound 0.01 µM): 1.34
- relative viability (NCI-H322M; first compound 0.03162 µM): 1.17
- relative viability (NCI-H322M; first compound 0.3162 µM): 1.19
- relative viability (NCI-H322M; first compound 1 µM): 1.12
- relative viability (NCI-H1355; first compound 0.01 µM): 0.956
- relative viability (NCI-H1355; first compound 0.03162 µM): 0.981
- relative viability (NCI-H1355; first compound 0.3162 µM): 0.941
- relative viability (NCI-H1355; first compound 1 µM): 0.891
- relative viability (NCI-H2405; first compound 0.01 µM): 0.837
- relative viability (NCI-H2405; first compound 0.03162 µM): 1.01
- relative viability (NCI-H2405; first compound 0.1 µM): 0.838
- relative viability (NCI-H2405; first compound 0.3162 µM): 0.811
- relative viability (NCI-H2405; first compound 1 µM): 0.95
- relative viability (LK-2; first compound 0.01 µM): 0.882
- relative viability (LK-2; first compound 0.03162 µM): 0.886
- relative viability (LK-2; first compound 0.1 µM): 0.896
- relative viability (LK-2; first compound 0.3162 µM): 0.874
- relative viability (LK-2; first compound 1 µM): 1.07
- relative viability (NCI-H2228; first compound 0.03162 µM): 0.895
- relative viability (NCI-H2228; first compound 0.1 µM): 1.16
- relative viability (NCI-H2228; first compound 0.3162 µM): 0.897
- relative viability (NCI-H2228; first compound 1 µM): 1.19
- relative viability (CAL-12T; first compound 0.01 µM): 1.47
- relative viability (CAL-12T; first compound 0.03162 µM): 1.17
- relative viability (CAL-12T; first compound 0.1 µM): 1.36
- relative viability (CAL-12T; first compound 0.3162 µM): 1.45
- relative viability (CAL-12T; first compound 1 µM): 1.16
- relative viability (HCC-827; first compound 0.01 µM): 1.02
- relative viability (HCC-827; first compound 0.03162 µM): 0.996
- relative viability (HCC-827; first compound 0.1 µM): 1.01
- relative viability (HCC-827; first compound 0.3162 µM): 1.07
- relative viability (HCC-827; first compound 1 µM): 1.02
- relative viability (NCI-H1755; first compound 0.01 µM): 0.983
- relative viability (NCI-H1755; first compound 0.03162 µM): 0.949
- relative viability (NCI-H1755; first compound 0.1 µM): 1.02
- relative viability (NCI-H1755; first compound 0.3162 µM): 0.972
- relative viability (NCI-H1755; first compound 1 µM): 0.999
- relative viability (NCI-H1734; first compound 0.01 µM): 0.921
- relative viability (NCI-H1734; first compound 0.03162 µM): 0.807
- relative viability (NCI-H1734; first compound 0.1 µM): 0.835
- relative viability (NCI-H1734; first compound 0.3162 µM): 0.708
- relative viability (NCI-H1734; first compound 1 µM): 0.851
- relative viability (EKVX; first compound 0.01 µM): 1.02
- relative viability (EKVX; first compound 0.03162 µM): 0.903
- relative viability (EKVX; first compound 0.1 µM): 0.991
- relative viability (EKVX; first compound 0.3162 µM): 0.956
- relative viability (EKVX; first compound 1 µM): 0.871
- relative viability (NCI-H520; first compound 0.01 µM): 1.11
- relative viability (NCI-H520; first compound 0.03162 µM): 1.14
- relative viability (NCI-H520; first compound 0.1 µM): 1.18
- relative viability (NCI-H520; first compound 0.3162 µM): 1.05
- relative viability (NCI-H520; first compound 1 µM): 1.22
- relative viability (PC-3 [JPC-3]; first compound 0.01 µM): 0.824
- relative viability (PC-3 [JPC-3]; first compound 0.03162 µM): 0.784
- relative viability (PC-3 [JPC-3]; first compound 0.1 µM): 0.795
- relative viability (PC-3 [JPC-3]; first compound 0.3162 µM): 0.783
- relative viability (PC-3 [JPC-3]; first compound 1 µM): 0.777
- relative viability (H3255; first compound 0.01 µM): 0.557
- relative viability (H3255; first compound 0.03162 µM): 0.5
- relative viability (H3255; first compound 0.1 µM): 0.555
- relative viability (H3255; first compound 0.3162 µM): 0.54
- relative viability (H3255; first compound 1 µM): 0.527
- relative viability (NCI-H1975; first compound 0.01 µM): 1.02
- relative viability (NCI-H1975; first compound 0.03162 µM): 1.13
- relative viability (NCI-H1975; first compound 0.1 µM): 1.1
- relative viability (NCI-H1975; first compound 0.3162 µM): 0.985
- relative viability (NCI-H1975; first compound 1 µM): 0.994
